Source: US9340543B2, “Helquat derivatives, preparation thereof, and use thereof as medicaments” (USTAV ORGANICKE CHEMIE A BIOCHEMIE AKADEMIE VED CR, V.V.I., priority 2013, dated 2016)

How the values were obtained:
[1] = test system: NHDF-Ad; assay: CellTiter-Glo luminescent cell viability assay (ATP quantification), NHDF-Ad normal cells; format: cell-based; conditions: normal human dermal fibroblasts, 72 h treatment
Description: (§1) Influence of the test compounds on viability (proliferation) of cell lines used was investigated in concentration range 0-100 μmol·l^−1.
Normal human dermal fibroblasts were cultivated without antibiotics in basal medium for fibroblasts (ATCC/LGC Standards, cat. no. PCS-201-030) with added “Fibroblast Growth Kit-Low serum” (ATCC/LGC Standards, cat. no. PCS-201-041) containing 2% FBS, L-glutamine, hydrocortisone, ascorbic acid, rh FGF beta, rh insulin. When 90% confluency was reached the fibroblasts were washed with sterile PBS (5 ml) and dissociated by addition of 0.25% solution of trypsin/EDTA (2 ml; 2 min; 37° C.). After that 5 ml of cultivation medium for fibroblasts was added and the cells were centrifuged (180×g, 7 min), the cell pellet was resuspended, and transferred in the amount needed into a new cultivation bottle with fresh medium. The same cell release procedure was applied when the cells were to be used in experiments. The cells were used in experiments between the 3rd and the 15th passage after defreeezing. Population doubling time of NHDF-Ad cell line was 33 h under the cultivation conditions used.
(§2) In order to test the sensitivity of the cell lines towards the studied helquats, cytotoxity test for cell viability assessment based on ATP quantification in cell lysates was used (CellTiter-Glo® Luminescent Cell Viability Assay, Promega, cat. no. G7571). In this test, ATP in cell lysates is detected using luciferase reaction. Luminescence intensity correlates with the ATP level and thus with quantity of metabolically active (viable) cells. IC50 value serves as the output, that is the concentration of the test compound which leads to 50% reduction in number of viable cells as compared to control, untreated population. To this end, IC50 value reflects efficiency of the test compound with regard to the given cell line.
(§3) Cells in the exponential growth phase were seeded into a 96-well microtiter plate were plated at 3000 cells per well. Each well contained 90 μl of cell suspension. The next day, 10 μl of 10× concentrated test compound solutions were added. The effect of helquats was investigated in concentration range 1 to 100 μmol·l^−1 (e.g. 1; 2.5; 5; 7.5; 10; 15; 25; 50 and 100 μmol·l^−1). Apart from the section containing the concentration series of the test compound, each well contained 2 control columns, the first with pure medium (so called blank) and the second with cells in medium without the test compounds (control). Into wells containing controls and blanks, volume of solvent (water) equal to the volume of added compound solutions was added. After 72 h of incubation with the test compounds viability was determined according to the manufacturer's instructions. In short: microtiter well plate was left 30 min to reach the room temperature after it has been removed from the incubator. Then, into each well, 100 μl of the prepared detection agent was added. Next, the well plate was shaken for 2 min to complete the full lysis. Next, after the well had been left in the dark for 15 min, the luminescence was measured in each well using luminometer (Tecan Genios, Austria).
(§4) IC50 value represents concentration of the test compound, which leads to 50% reduction of viable cells (inhibition of cell growth) after 72 h of the treatment. Each helquat concentration was tested in triplicates in a IC50 quantification and at least 3 independent IC50 quantification experiments were performed. IC50 values over 100 μmol·l^−1 were obtained by extrapolation of data measured in concentration range 0-100 μmol·l^−1 for the given helquat.

[2] = test system: LoVo; assay: CellTiter-Glo luminescent cell viability assay (ATP quantification), LoVo; format: cell-based; conditions: Homo sapiens, LoVo, colorectal carcinoma cells, 72 h treatment
Experimental: as §1
Adherent cell line LoVo is a permanent in vitro culture derived from tissue of a patient with colorectal carcinoma. LoVo cell line was cultivated in DMEM medium (Sigma-Aldrich, cat. no. D8437) with addition of 2 mmol·l^−1 glutamine (Invitrogen, see above), 10% fetal bovine serum (FBS, Sigma-Aldrich, see above), 100 IU/ml peniciline, 100 μg/ml streptomycine (Sigma-Aldrich, see above). Passaging was performed twice a week. After washing of cells with sterile PBS, the cells were released by 0.25% trypsin/EDTA (Sigma-Aldrich, see above) at 37° C. for 2 minutes. The trypsin was inactivated by addition of 2 volumes of complete medium, cells were then centrifuged (250×g, 5 min), resuspended, and transferred in the amount needed into a new cultivation bottle with fresh medium. Population doubling time of LoVo cell line was 39 h under the cultivation conditions used.
as §2, §3, §4

[3] = test system: HUVEC; assay: CellTiter-Glo luminescent cell viability assay (ATP quantification), HUVEC normal cells; format: cell-based, human; conditions: 72 h treatment
Experimental: as §1
Normal human endothelial cells from umbilical vein are adherent cells cultivated in plastic Petri dishes coated with collagen I. Into the cultivation medium (E-STIM™; BD Biosciences, cat. co. 355054) already containing 2% FBS (fetal bovine serum), hydrocortisone and heparin the following two further ingredients were added: epidermal growth factor (EGF, 5 μg) and mixture of factors facilitating growth of endothelial cells (ECGS, 100 mg). […] The cells were passaged after reaching 90% confluency by dissociation using 0.25% solution of trypsin/EDTA (1 ml; 3 min; 37° C.). After that 5 ml of complete cultivation medium E-STIM™ was added and the cells were centrifuged (180×g, 7 min), the pellet was resuspended, and transferred in the amount needed into a new Petri dish with fresh medium. The cells were used in experiments between the 3rd and the 8th passage after defreezing. Population doubling time of HUVEC cell line was 38 h under the cultivation conditions used.
as §2, §3, §4

[4] = test system: HeLa; assay: CellTiter-Glo luminescent cell viability assay (ATP quantification), HeLa; format: cell-based; conditions: cervical cancer cells, 72 h treatment, viable cells by ATP luminescence
Experimental: as §1
Adherent cell line HeLa is a permanent in vitro culture derived from cervical cancer. HeLa cell line was cultivated in RPMI 1640 medium (Dutch modification) (Sigma-Aldrich, cat. no. R7638) with addition of 2 mmol·l^−1 glutamine (Invitrogen, see above), 10% fetal bovine serum (FBS, Sigma-Aldrich, see above), 100 IU/ml peniciline, 100 μg/ml streptomycine (Sigma-Aldrich, see above). Passaging was performed twice a week. After washing of cells with sterile PBS the cells were released by 0.25% trypsin/EDTA (Sigma-Aldrich, cat. no. T4049) at 37° C. for 2 minutes. The trypsin was inactivated by addition of 2 volumes of complete medium, cells were then centrifuged (250×g, 5 min), the cell pellet was resuspended, and transferred in the amount needed into a new cultivation bottle with fresh medium. Population doubling time of […] cell line was 25 h under the cultivation conditions used.
as §2, §3, §4

[5] = test system: MOLT-4; assay: CellTiter-Glo luminescent cell viability assay (ATP quantification), MOLT-4; format: cell-based; conditions: acute lymfoblastic leukemia cells, 72 h treatment, viable cells by ATP luminescence
Experimental: as §1
(§5) Suspension cell line MOLT-4 is a permanent in vitro culture of acute lymfoblastic leukemia. Linie MOLT-4 cell line was cultivated in RPMI 1640 medium (Sigma-Aldrich, see above) with addition of 2 mmol glutamine (Invitrogen, see above), 10% fetal bovine serum (FBS, Sigma-Aldrich, see above), 100 IU/ml peniciline, 100 μg/ml streptomycine (Sigma-Aldrich, see above). Passaging was performed 2-3× a week. Population doubling time of MOLT-4 cell line was 25 h under the cultivation conditions used.
as §2, §3, §4

[6] = test system: CCRF-CEM; assay: CellTiter-Glo luminescent cell viability assay (ATP quantification), CCRF-CEM; format: cell-based; conditions: acute lymphoblastic leukemia cells, 72 h treatment, viable cells by ATP luminescence
Experimental: as §1
Suspension cell line CCRF-CEM is a permanent in vitro culture of acute lymphoblastic leukemia. CCRF-CEM cell line was cultivated in RPMI 1640 medium (Sigma-Aldrich, cat. no. R8758) with addition of 2 mmol·l^−1 glutamine (Invitrogen, cat. no. 35050-038), 10% fetal bovine serum (FBS, Sigma-Aldrich, cat. no. F9665), 100 IU/ml peniciline, 100 μg/ml streptomycine (Sigma-Aldrich, cat. no. P0781). Passaging was performed 2-3× a week. Population doubling time of CCRF-CEM cell line was 20 h under the cultivation conditions used.
as §2, §3, §4

[7] = test system: HL-60; assay: CellTiter-Glo luminescent cell viability assay (ATP quantification), HL-60; format: cell-based; conditions: Homo sapiens, HL-60; acute promyelocytic leukemia cells, 72 h treatment, viable cells by ATP luminescence
Experimental: as §1
as §5, with “HL-60” for “MOLT-4”, “promyelocytic” for “lymfoblastic”, “HL-60” for “Linie MOLT-4”, “mmol·l^−1” for “mmol”, “23” for “25”
as §2, §3, §4

[8] = Fibroblast, viable cells by ATP luminescence, class symbols
[9] = viable cells by ATP luminescence, class symbols
[10] = HUVEC, normal human endothelial cells from umbilical vein, viable cells by ATP luminescence, class symbols
[11] = Fibroblast, numeric bound, values over 100 obtained by extrapolation of data measured at 0-100 μmol·l−1
[12] = HUVEC, normal human endothelial cells, numeric bound, values over 100 obtained by extrapolation of data measured at 0-100 μmol·l−1
[13] = numeric bound, values over 100 obtained by extrapolation of data measured at 0-100 μmol·l−1

| Structure (SMILES) | IC50 [2, 9] [µM] | IC50 ([4]; Homo sapiens, HeLa) [µM] | IC50 ([5]; Homo sapiens, MOLT-4) [µM] | IC50 ([6]; Homo sapiens, CCRF-CEM) [µM] | IC50 [7] [µM] | IC50 [4] [µM] | IC50 [5] [µM] | IC50 [6] [µM] | IC50 [2, 13] [µM] | IC50 [1, 8] [µM] | IC50 [3, 10] [µM] | IC50 [1, 11] [µM] | IC50 [3, 12] [µM] | IC50 [1, 9] [µM] | IC50 ([3]; normal human endothelial cells, numeric bound, values over 100 obtained by extrapolation of data measured at 0-100 μmol·l−1) [µM] |
| --- | --- | --- | --- | --- | --- | --- | --- | --- | --- | --- | --- | --- | --- | --- | --- |
| Cc1c(C)c2c(c3c1CC[n+]1ccc(/C=C/c4ccc(N(C)C)cc4)cc1-3)-c1c3ccccc3cc[n+]1CC2 [(P)-1, (P)-(E)-13-(4-(dimethylamino)styryl)-6,7-dimethyl-4,5,8,9-tetrahydroiso-quinolino[1,2-a]pyrido[1,2-k][2,9]phenanthroline-3,10-diium trifluoromethanesulfonate] |  |  |  |  |  | 11 to 50 | 11 to 50 | 11 to 50 |  |  |  |  |  | 51 to 150 | > 150 |
| CN(C)c1ccc(/C=C/C=C/c2cc[n+]3c(c2)-c2c(ccc4c2-c2cccc[n+]2CC4)CC3)cc1 [compound 30, 2-((1E,3E)-4-(4-(dimethylamino)phenyl)buta-1,3-dien-1-yl)-6,7,10,11-tetrahydrodipyrido[2,1-a:1′,2′-k][2,9]phenanthroline-5,12-diium trifluoromethanesulfonate] |  | 51 to 150 | 51 to 150 | 51 to 150 |  |  |  |  | > 150 |  |  | > 150 | > 150 |  |  |
| CN(C)c1ccc(/C=C/c2cc[n+]3c(c2)-c2c(ccc4c2-c2cccc[n+]2CCC4)CCC3)cc1 (racemic) [(rac)-35, (rac)-(E)-2-(4-(dimethylamino)styryl)-6,7,8,11,12,13-hexahydrodipyrido[1,2-a:1′,2′-a′]benzo[2,1-c:3,4-c′]bisazepinediium trifluoromethanesulfonate] |  | 51 to 150 | 51 to 150 | 51 to 150 |  |  |  |  | > 150 |  |  | > 150 | > 150 |  |  |

More lines, main results first:

| IC50 [2, 9] [µM] | IC50 ([4]; Homo sapiens, HeLa) [µM] | IC50 ([5]; Homo sapiens, MOLT-4) [µM] | IC50 ([6]; Homo sapiens, CCRF-CEM) [µM] | IC50 [7] [µM] | IC50 [4] [µM] | IC50 [5] [µM] | IC50 [6] [µM] | IC50 [2, 13] [µM] | Structure (SMILES) | IC50 [1, 8] [µM] | IC50 [3, 10] [µM] | IC50 [1, 11] [µM] | IC50 [3, 12] [µM] | IC50 [1, 9] [µM] | IC50 ([3]; normal human endothelial cells, numeric bound, values over 100 obtained by extrapolation of data measured at 0-100 μmol·l−1) [µM] |
| --- | --- | --- | --- | --- | --- | --- | --- | --- | --- | --- | --- | --- | --- | --- | --- |
| 11 to 50 | 11 to 50 | 11 to 50 | 11 to 50 |  |  |  |  |  | CN(C)c1ccc(/C=C/c2cccc3[n+]2CCCc2ccc4c(c2-3)-c2cccc(/C=C/c3ccc(N(C)C)cc3)[n+]2CCC4)cc1 (racemic) [(rac)-41, (rac)-4,15-bis((E)-4-(dimethylamino)styryl)-6,7,8,11,12,13-hexahydro-dipyrido[1,2-a:1′,2′-a′]benzo[2,1-c:3,4-c′]bisazepinediium trifluoromethanesulfonate] | 51 to 150 | 51 to 150 |  |  |  |  |
|  | 11 to 50 | 11 to 50 | < 10 | 11 to 50 |  |  |  |  | COc1ccc2cc(/C=C/c3cc[n+]4c(c3)-c3c(c(C)c(C)c5c3-c3c6ccccc6cc[n+]3CC5)CC4)ccc2c1 (racemic) [(rac)-7, (rac)-(E)-13-(2-(6-methoxynaphthalene-2-yl)vinyl)-6,7-dimethyl-4,5,8,9-tetrahydroisoquinolino[1,2-a]pyrido[1,2-k][2,9]phenanthroline-3,10-diium trifluoromethanesulfonate] |  |  | > 150 | > 150 |  |  |
|  | 11 to 50 | 11 to 50 | 11 to 50 |  |  |  |  |  | Cc1c(C)c2c(c3c1CC[n+]1ccc(/C=C/c4ccc(N(C)C)cc4)cc1-3)-c1c3ccccc3cc[n+]1CC2 (racemic) [(rac)-1, (rac)-(E)-13-(4-(dimethylamino)styryl)-6,7-dimethyl-4,5,8,9-tetrahydroiso-quinolino[1,2-a]pyrido[1,2-k][2,9]phenanthroline-3,10-diium trifluoromethanesulfonate] | 51 to 150 |  |  | > 150 |  |  |
| 51 to 150 | 11 to 50 | 11 to 50 | 11 to 50 |  |  |  |  |  | C(=C\c1cc[n+]2c(c1)-c1c(ccc3c1-c1c4ccccc4cc[n+]1CC3)CC2)/c1cc2c3c(c1)CCCN3CCC2 (racemic) [(rac)-20, (rac)-(E)-13-(2-(1,2,3,5,6,7-hexahydropyrido[3,2,1-ij]quinolin-9-yl)vinyl)-4,5,8,9-tetrahydroisoquinolino[2,1-k]pyrido[2,1-a][2,9]phenanthroline-3,10-diium trifluoromethanesulfonate] | 51 to 150 | 51 to 150 |  |  |  |  |
